Measured values: publication PMC10298657, “QbD-Optimized, Phospholipid-Based Elastic Nanovesicles for the Effective Delivery of 6-Gingerol: A Promising Topical Option for Pain-Related Disorders” (International Journal of Molecular Sciences, 2023)

Experiment: ABTS radical scavenging activity
Format: biochemical
Details: ABTS assay
Method: The ability of the nanocarriers to scavenge the free radical ABTS was used to measure their antioxidant activity. To create an ABTS free radical, a stock solution of 7 mM ABTS was combined with 2.45 mM potassium persulfate and agitated in the dark for 12 h. […] Then, a standard solution (ascorbic acid) was mixed with the ABTS+ solution and incubated for 10 min in a 37 °C water bath. After that, various concentrations (10–100 µg/mL) of all samples were prepared in ethanol, 3 mL of the solution and 1 mL of the samples were combined, and the absorbance was measured at 734 nm using a UV spectrophotometer after 6 min [66]. Finally, the following equation was used to compute ABTS scavenging activity: Scavenging (%)=(Absorbance blank−Absorbance sample)/Absorbance blank×100

SMILES | Antioxidant activity (ABTS scavenging) [%]
CCCCC[C@H](O)CC(=O)CCc1ccc(O)c(OC)c1 [Formulation 6-G, 6-gingerol] | 67.01 ± 1.11
O=C1O[C@H]([C@@H](O)CO)C(O)=C1O [standard solution, ascorbic acid] | 91.14 ± 0.24
